Measurements reported in EPA's ToxValDB 9.5 (doi:10.2903/j.efsa.2009.332r).

Tests used:
[1] = chronic/long-term
Anas platyrhynchos = conditions: acute; oral; unspecified; mortality
Apis mellifera = conditions: acute; dermal; mortality
Canidae = conditions: chronic; duration: 1 years; oral; Dog Other; hematological
Colinus virginianus = conditions: for LD50: acute, oral, mortality
Daphnia magna = conditions: chronic/long-term; duration: 21 days; mortality
Mus musculus = conditions: acute; oral; mortality
Oncorhynchus mykiss = conditions: chronic/long-term; growth
Rattus norvegicus = conditions: oral
Tagia sp. = conditions: acute; duration: 14 days; mortality

Work on `O=C(NC(=O)c1c(F)cccc1F)Nc1ccc(Cl)cc1` [Diflubenzuron] yielded an NOEL [1] of 3680 mg/kg-day, an LD50 (Anas platyrhynchos) of over 5000 mg/kg and an LD50 (Apis mellifera) of 0.05 µg/piece. For the same compound, the NOAEL (Canidae) was 10 mg/kg-day, the LD50 (Colinus virginianus; diet) was over 1210 mg/kg-day and the LD50 (Colinus virginianus) was over 5000 mg/kg. For the same compound, the NOEC (Colinus virginianus; reproduction developmental) was 42.7 mg/kg-day, the NOEC (Daphnia magna) was 4e-05 mg/L and the LD50 (Mus musculus) was over 4640 mg/kg. It also gave an NOEC (Oncorhynchus mykiss) of 0.2 mg/L, an LD50 (Rattus norvegicus; acute, mortality) of 4640 mg/kg and an NOAEL (Rattus norvegicus; subchronic, duration: 13 weeks, hematological) of 11 mg/kg-day. It also gave an LC50 (Tagia sp.) of over 1000 mg/kg.
